Results on three compounds are retold here after PMC12196213, “New Insights into the Anticancer Effects and Toxicogenomic Safety of Two β-Lapachone Derivatives” (Pharmaceuticals, 2025).

For one assay, the target named is ABL1 (Homo sapiens, UniProt P00519). As to the kind of experiment: ADP-Glo kinase assay. The conditions noted are these: 10 µM ATP, read-out: % of residual activity; for remaining activity at 1 µM: ABL1, 1 µM compound; for remaining activity at 10 µM: ABL1, 10 µM compound. It is filed as biochemical. The method, then:
(§1) Kinase enzymatic activities of CDK5/p25, CDK9/CyclinT, HASPIN, PIM1, GSK3β, CK1ε, ABL1, and JAK3 were assayed using the luminescent ADP detection assay described in Zegzouti et al. (ADP-GloTM assay kit provided by Promega, Madison, WI, USA). Briefly, the reactions were carried out in appropriate kinase buffer, with either protein or peptide as substrate in the presence of 10 µM ATP. Assay conditions used for each kinase tested here are described in Ibrahim et al.. The Envision (PerkinElmer, Waltham, MA, USA) microplate luminometer was used to measure the transmitted signal expressed in Relative Light Unit (RLU). In order to determine the half maximal inhibitory concentration (IC50), the assays were performed in duplicate in the absence or presence of increasing doses of the tested compounds. Kinase activities are expressed in % of maximal activity, i.e., measured in the absence of inhibitor but with a similar dose of DMSO (solvent of the tested compounds).

The next assay addresses T1, JAK3 (Homo sapiens, UniProt P52333).
T1 sequence (P52333 1-1124): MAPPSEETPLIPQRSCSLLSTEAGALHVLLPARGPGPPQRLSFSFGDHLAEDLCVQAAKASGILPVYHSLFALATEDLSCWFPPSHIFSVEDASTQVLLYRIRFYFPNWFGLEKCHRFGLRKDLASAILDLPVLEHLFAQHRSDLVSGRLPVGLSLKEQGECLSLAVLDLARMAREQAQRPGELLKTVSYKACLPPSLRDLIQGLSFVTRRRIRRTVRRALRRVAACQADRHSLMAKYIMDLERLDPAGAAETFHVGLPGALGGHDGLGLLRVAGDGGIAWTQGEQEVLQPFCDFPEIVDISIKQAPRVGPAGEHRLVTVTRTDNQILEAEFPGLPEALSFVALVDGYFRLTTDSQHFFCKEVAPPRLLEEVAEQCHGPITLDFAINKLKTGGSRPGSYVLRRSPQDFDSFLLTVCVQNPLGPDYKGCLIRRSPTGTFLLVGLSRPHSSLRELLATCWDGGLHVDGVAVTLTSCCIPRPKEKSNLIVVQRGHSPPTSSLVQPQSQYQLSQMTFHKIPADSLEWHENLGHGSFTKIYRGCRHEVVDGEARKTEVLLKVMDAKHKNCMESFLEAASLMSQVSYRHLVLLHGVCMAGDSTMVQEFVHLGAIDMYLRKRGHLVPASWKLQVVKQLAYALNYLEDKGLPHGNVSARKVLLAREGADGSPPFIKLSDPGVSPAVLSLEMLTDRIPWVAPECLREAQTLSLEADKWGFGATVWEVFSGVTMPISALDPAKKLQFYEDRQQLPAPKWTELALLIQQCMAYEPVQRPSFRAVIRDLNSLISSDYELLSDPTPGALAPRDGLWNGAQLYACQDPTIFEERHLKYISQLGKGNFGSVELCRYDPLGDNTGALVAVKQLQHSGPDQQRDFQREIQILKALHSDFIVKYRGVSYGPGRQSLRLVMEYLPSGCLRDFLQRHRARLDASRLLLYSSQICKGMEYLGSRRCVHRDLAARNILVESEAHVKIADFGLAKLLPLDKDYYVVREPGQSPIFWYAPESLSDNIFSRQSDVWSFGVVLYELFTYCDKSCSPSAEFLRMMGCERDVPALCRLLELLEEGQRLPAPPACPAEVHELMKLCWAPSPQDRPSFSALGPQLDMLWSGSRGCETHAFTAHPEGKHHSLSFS
Nature of the assay: ADP-Glo kinase assay. Type of assay: biochemical. The conditions noted are these: for remaining activity at 1 µM: JAK3, 1 µM compound; for remaining activity at 1 µM / remaining activity at 10 µM: 10 µM ATP, read-out: % of residual activity; for remaining activity at 10 µM: JAK3, 10 µM compound. The method, then:
as §1
For orientation: ADP-Glo first removes unused ATP, then detects ADP through luciferase.

The next assay has as its target CDK9/CyclinT (Homo sapiens, UniProt P50750). As to the kind of experiment: ADP-Glo kinase assay. Type of assay: biochemical. The conditions noted are these: 10 µM ATP, read-out: % of residual activity; for remaining activity at 1 µM: 1 µM compound; for remaining activity at 10 µM: 10 µM compound. The method, then:
as §1

The target of a further assay is T2, HASPIN (Homo sapiens, UniProt Q8TF76).
T2 sequence (Q8TF76 470-798 limits assumed): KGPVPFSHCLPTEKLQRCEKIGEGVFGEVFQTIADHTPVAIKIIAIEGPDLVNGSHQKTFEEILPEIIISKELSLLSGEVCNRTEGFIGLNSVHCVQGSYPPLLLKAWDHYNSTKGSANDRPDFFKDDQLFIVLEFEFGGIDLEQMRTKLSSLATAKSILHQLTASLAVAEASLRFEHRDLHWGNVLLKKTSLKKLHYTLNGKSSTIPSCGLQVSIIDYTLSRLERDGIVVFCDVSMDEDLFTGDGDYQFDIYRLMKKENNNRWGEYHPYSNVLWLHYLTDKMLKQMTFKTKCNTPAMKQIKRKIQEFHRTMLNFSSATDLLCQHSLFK
Nature of the assay: ADP-Glo kinase assay. It is filed as biochemical. The conditions noted are these: 10 µM ATP, read-out: % of residual activity; for remaining activity at 1 µM: 1 µM compound; for remaining activity at 10 µM: 10 µM compound. How it is done:
as §1

The next assay deals with CK1ε (Homo sapiens, UniProt P49674). Nature of the assay: ADP-Glo kinase assay. The conditions noted are these: 10 µM ATP, read-out: % of residual activity; for remaining activity at 1 µM: 1 µM compound; for remaining activity at 10 µM: 10 µM compound. Type of assay: biochemical. The method, then:
as §1

A further assay addresses GSK3β (Homo sapiens, UniProt P49841). As to the kind of experiment: ADP-Glo kinase assay. Type of assay: biochemical. The conditions noted are these: for remaining activity at 1 µM: 1 µM compound; for remaining activity at 1 µM / remaining activity at 10 µM: read-out: % of residual activity; for remaining activity at 10 µM: 10 µM compound. How it is done: as §1
For assay [1], the system named is cancer cells (HeLa, HCT-116, HepG2, MDA-MB-231). As to the kind of experiment: MTT cytotoxicity assay, cancer cell panel (range over lines). Type of assay: cell-based. The conditions noted are these: Homo sapiens, 72 h. How it is done: To assess the cytotoxicity of the compounds, the MTT [3-(4,5-dimethylthiazol-2-yl)-2,5-diphenyltetrazolium bromide] assay was employed. The cells (2 × 10^5/mL) were incubated with the substances at concentrations ranging from 0.78 to 25 µg/mL. β-lap was used as a positive control. After 24, 48, or 72 h of incubation, MTT was added at a concentration of 5 mg/mL. Cell viability in different treatments was compared to the negative control using the following formula: Cell viability%=mean absorbance of treated samples/mean absorbance of negative control×100 The IC50 (the concentration that inhibits 50% of cell growth compared to the negative control) was calculated using nonlinear regression in GraphPad Prism 8.0 for Windows (GraphPad Demo Software, San Diego, CA, USA). Experiments were performed in triplicate and in two independent experiments. The protocol is also described in other previous publications.
A general note: Tetrazolium dyes change colour on reduction, which living cells bring about.

[2] abbreviates: JAK3, dose–response curve, Figure 5.

Sequence of CK1ε (P49674 whole entry): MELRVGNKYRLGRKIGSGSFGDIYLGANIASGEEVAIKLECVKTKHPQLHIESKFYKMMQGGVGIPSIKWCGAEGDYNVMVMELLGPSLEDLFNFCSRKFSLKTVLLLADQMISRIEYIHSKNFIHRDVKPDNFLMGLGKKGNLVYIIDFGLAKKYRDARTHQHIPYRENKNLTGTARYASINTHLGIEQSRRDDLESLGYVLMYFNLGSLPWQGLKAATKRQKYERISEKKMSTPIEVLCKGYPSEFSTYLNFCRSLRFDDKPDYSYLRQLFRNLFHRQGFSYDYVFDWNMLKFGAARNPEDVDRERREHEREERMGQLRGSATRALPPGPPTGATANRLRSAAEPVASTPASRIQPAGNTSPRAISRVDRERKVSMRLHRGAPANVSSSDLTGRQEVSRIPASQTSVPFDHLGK
Sequence of CDK9/CyclinT (P50750 whole entry): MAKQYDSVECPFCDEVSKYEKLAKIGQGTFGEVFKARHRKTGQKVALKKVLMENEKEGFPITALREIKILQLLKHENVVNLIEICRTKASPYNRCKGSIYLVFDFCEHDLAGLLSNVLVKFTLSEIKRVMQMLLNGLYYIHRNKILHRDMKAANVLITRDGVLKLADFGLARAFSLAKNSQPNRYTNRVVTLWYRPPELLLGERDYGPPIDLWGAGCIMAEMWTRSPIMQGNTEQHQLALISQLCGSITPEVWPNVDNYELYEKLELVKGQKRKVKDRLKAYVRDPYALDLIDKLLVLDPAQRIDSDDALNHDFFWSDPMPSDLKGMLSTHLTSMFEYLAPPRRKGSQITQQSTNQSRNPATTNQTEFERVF
Sequence of CDK9/CyclinT (O60563 whole entry partner): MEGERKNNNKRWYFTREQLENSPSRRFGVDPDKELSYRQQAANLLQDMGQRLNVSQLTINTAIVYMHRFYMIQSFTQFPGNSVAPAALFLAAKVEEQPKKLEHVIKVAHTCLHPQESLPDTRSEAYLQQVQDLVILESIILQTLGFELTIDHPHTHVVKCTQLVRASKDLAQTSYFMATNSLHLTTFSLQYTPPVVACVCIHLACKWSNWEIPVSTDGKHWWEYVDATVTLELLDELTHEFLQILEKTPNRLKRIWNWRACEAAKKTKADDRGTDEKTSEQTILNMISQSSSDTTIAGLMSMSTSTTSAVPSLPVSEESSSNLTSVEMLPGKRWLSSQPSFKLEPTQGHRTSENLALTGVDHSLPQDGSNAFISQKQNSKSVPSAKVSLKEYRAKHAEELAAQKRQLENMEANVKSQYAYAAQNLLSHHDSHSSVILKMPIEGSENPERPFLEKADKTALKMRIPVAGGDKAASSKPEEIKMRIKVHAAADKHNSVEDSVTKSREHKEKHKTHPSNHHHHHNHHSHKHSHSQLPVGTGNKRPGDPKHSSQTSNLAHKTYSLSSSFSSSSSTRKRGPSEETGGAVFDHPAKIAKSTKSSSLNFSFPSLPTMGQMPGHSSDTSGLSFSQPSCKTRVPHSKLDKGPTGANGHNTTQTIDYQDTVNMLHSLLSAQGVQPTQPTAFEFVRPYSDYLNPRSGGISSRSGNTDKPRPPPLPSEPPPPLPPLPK
Sequence of ABL1 (P00519 whole entry): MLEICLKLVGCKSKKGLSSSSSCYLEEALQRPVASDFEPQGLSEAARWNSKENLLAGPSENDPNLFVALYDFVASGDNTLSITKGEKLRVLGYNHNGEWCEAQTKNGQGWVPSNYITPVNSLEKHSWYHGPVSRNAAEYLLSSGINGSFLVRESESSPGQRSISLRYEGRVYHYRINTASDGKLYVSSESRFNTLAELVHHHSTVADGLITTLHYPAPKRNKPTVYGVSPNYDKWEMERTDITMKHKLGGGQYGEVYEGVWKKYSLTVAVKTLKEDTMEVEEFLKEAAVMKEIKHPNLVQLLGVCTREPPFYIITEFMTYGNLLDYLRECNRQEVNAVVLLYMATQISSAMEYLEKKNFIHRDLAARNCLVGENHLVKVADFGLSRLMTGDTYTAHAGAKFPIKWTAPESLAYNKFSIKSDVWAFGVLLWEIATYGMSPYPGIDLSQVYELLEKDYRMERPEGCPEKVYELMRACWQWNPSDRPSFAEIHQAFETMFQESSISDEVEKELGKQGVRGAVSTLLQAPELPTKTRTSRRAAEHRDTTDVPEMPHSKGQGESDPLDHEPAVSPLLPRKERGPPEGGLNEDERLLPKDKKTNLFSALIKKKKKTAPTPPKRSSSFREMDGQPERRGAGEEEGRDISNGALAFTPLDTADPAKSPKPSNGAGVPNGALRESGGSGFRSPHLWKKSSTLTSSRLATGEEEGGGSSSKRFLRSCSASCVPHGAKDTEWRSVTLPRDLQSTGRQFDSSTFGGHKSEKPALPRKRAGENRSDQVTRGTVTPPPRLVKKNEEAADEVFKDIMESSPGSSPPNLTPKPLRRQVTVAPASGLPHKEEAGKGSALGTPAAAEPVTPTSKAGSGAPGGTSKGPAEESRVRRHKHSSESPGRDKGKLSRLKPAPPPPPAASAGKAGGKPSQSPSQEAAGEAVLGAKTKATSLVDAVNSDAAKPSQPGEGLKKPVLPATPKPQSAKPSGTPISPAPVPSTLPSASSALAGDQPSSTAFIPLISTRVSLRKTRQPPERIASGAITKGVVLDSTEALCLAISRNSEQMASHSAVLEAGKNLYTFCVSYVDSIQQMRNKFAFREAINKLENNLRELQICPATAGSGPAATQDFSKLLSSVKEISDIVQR
Sequence of GSK3β (P49841 whole entry): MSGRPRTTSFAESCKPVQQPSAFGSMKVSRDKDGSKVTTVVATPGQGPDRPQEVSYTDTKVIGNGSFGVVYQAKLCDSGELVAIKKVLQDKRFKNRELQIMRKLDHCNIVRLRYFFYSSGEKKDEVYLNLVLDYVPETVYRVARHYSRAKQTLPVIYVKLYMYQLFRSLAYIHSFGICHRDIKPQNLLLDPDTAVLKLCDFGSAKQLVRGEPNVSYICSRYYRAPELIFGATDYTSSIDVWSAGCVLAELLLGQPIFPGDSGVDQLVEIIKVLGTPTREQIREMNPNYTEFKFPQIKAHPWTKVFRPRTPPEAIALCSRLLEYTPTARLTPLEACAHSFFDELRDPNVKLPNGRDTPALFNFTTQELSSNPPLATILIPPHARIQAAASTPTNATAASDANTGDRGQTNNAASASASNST

As usually defined, the IC50 is the concentration that inhibits the measured activity by half. A low value points to greater potency. Turning to `CC1(C)CCC2=C(O1)c1ccccc1C(=O)C2=O` [β-lap, β-Lapachone], the remaining activity at 1 µM at ABL1 was 83%; at JAK3, 65%; at CDK9/CyclinT it was not below 100%; on HASPIN it was not below 100%; on CK1ε, not below 100%; on GSK3β (10 µM ATP), 67%. Further, the remaining activity at 10 µM came out at 81% on ABL1; 69% on JAK3; 72% at CDK9/CyclinT; 91% on HASPIN; 94% on CK1ε; 43% at GSK3β (10 µM ATP). In assay [1], this compound gave an IC50 of 0.12 to 3.38 µM.
Take `Cc1ccc(NC(=S)N/N=C2\C(=O)C3=C(OC(C)(C)CC3)c3ccccc32)cc1` [BV5, 2-(2,2-dimethyl-5-oxo-3,4-dihydro-2H-benzo[h]chromen-6(5H)-ylidene)-N-(p-tolyl)-thiocarbohydrazide]: the remaining activity at 1 µM was 83% at ABL1; 64% on JAK3; not below 100% on CDK9/CyclinT; not below 100% on HASPIN; 98% at CK1ε; 64% at GSK3β (10 µM ATP). Besides, the remaining activity at 10 µM on ABL1 was 56%; at JAK3, 4%; at CDK9/CyclinT it was 78%; on HASPIN, not below 100%; on CK1ε, 86%; on GSK3β (10 µM ATP), 24%. The IC50 at JAK3 (JAK3, 10 µM ATP) was 0.52 µM; against JAK3 (setting [2]), 0.522 µM; at GSK3β (10 µM ATP), 4.91 µM; in assay [1], 15.5 to 36.9 µM.
As to `CC1(C)CCC2=C(O1)c1ccccc1/C(=N/NC(=S)Nc1ccc([N+](=O)[O-])cc1)C2=O` [BV3, 2-(2,2-dimethyl-5-oxo-3,4-dihydro-2H-benzo[h]chromen-6(5H)-ylidene)-N-(4nitrophen-yl)thio-carbohydrazide], the remaining activity at 1 µM was 52% at ABL1; -3% on JAK3; not below 100% on CDK9/CyclinT; not below 100% on HASPIN; not below 100% at CK1ε; 58% at GSK3β (10 µM ATP). Also, the remaining activity at 10 µM on ABL1 was 35%; at JAK3, -9%; on CDK9/CyclinT, 67%; at HASPIN, not below 100%; on CK1ε, 98%; on GSK3β (10 µM ATP), 7%. The IC50 is 0.115 µM on JAK3 (setting [2]); 1 µM on GSK3β (10 µM ATP); 1 µM at GSK3β (dose–response curve, Figure 5); 2.81 to 20.6 µM in assay [1].
